The values that follow are results of earlier work, collected in publication PMC7904233 (Journal of medicinal chemistry, 2020).

SMILES strings stand for the structures.

For the series, the system named is EBOV Zaire. As to conditions: in vivo; cited from earlier work.

In the case of `CN(C)CCOc1ccc(/C(=C(/CCCl)c2ccccc2)c2ccccc2)cc1` [Compound 1, Toremifene], the mouse survival is reported as 50%.
Consider `CCN(CC)CCOc1ccc(C(=C(Cl)c2ccccc2)c2ccccc2)cc1` [clomiphene], for which the mouse survival is on record as 90%.
